The values that follow come from US7399869B2, “Fibroblast activation protein inhibitor compounds and methods” (Genentech, Inc., priority 2005, dated 2008).

Format in all cases: biochemical
For experiment [1], the target named is T1, POP (Homo sapiens, UniProt P48147).
T1 construct: 2-710 of POP; FLAG (N); made in house; host or cells: 293 cells; template plasmid from Origene
T1 sequence (P48147 2-710): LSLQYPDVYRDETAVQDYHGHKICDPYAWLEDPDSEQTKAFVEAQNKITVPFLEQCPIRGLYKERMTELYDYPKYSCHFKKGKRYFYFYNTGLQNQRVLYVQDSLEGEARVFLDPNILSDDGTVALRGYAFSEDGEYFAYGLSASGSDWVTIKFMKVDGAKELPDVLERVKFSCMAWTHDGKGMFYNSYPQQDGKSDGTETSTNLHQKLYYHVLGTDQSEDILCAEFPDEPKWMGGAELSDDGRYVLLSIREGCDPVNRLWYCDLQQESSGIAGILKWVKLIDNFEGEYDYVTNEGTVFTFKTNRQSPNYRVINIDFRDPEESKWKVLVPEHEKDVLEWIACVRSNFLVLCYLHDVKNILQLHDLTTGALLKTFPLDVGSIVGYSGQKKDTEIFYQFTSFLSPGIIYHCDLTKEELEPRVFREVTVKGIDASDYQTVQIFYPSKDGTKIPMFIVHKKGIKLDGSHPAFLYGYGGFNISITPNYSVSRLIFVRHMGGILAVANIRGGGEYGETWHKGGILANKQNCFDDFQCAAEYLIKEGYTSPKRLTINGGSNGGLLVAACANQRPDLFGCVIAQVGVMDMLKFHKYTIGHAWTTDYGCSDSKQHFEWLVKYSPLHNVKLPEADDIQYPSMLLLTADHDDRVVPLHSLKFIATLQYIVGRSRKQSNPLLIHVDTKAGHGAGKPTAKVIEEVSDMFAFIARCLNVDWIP
The experiment in a line: Inhibition of POP by N-blocked boroPro compounds. The method, then: Briefly, proteases were added to a reaction mixture containing inhibitor and substrate (Ac-Ala-AMC for APH, Z-Gly-Pro-AMC for POP, and Ala-Pro-AFC for all others) in assay buffer at 23° C. Protease activity was followed continuously as described above to monitor time-dependent inhibition. Data were plotted as V0/Vi−1 versus [I], where V0 is the rate if substrate hydrolysis in the absence of inhibitor, Vi is the steady state rate of substrate hydrolysis in the presence of inhibitor and [I] is the concentration of Ac-Gly-BoroPro.
KI values for inhibition of proteases by 5 were determined using the method of progress curves. Briefly, proteases (10-100 nM) were added to a reaction mixture containing inhibitor 5 (0-10 μM) and substrate AP-AFC in assay buffer at 23° C. […] Data were plotted as V0/Vi−1 versus [I], where V0 is the rate if substrate hydrolysis in the absence of inhibitor, Vi is the steady state rate of substrate hydrolysis in the presence of inhibitor and [I] is the concentration of 5. […] Ki, the true equilibrium inhibition constant was determined according to the following relationship: Ki=Kobs/(1+[S]/Km), where [S] is the concentration of substrate used in the assay and Km is the Michaelis constant for substrate cleavage.
Plasmids encoding full-length proteases were obtained from Origene Technologies Inc., Rockville Md. […]

Experiment [2] deals with T2, DPP-7 (Homo sapiens, UniProt Q9UHL4).
T2 construct: These constructs encoded amino acids 26-492 of DPP-7; FLAG (N); made in house; host or cells: 293 cells; template plasmid from Origene
The experiment in a line: Relative cleavage of unblocked and N-blocked Gly-Pro-AFC by DPP-7. Conditions: protease DPP-7; unblocked vs N-blocked substrate. How it is done:
(§1) The relative cleavage rates by FAP and several dipeptidases of N-blocked (8) and unblocked (7) Gly-Pro dipeptide substrates were measured.
(§2) Protease Assays—Protease activity was monitored continuously using a SpectraMax M2 microplate reader (Molecular Devices Corp., Sunnyvale Calif.) in the kinetic mode. Assays were conducted at 23° C. in 50 mM Tris (pH 7.4), 100 mM NaCl, 1 mM EDTA. The excitation/emission wavelengths for the different fluorogenic substrates were 360/460 nm (AMC), 400/505 nm (AFC), 340/425 nm (MNA), 340/510 nm (EDANS), and 337/425 nm (Abs). Standard curves of the appropriate fluorescent product versus concentration were used to convert relative fluorescence units to nmol of product produced. Substrates in the X-Pro-AMC library were used in rate assays at 5 μM final concentration. […] The kinetic parameters were calculated from Michaelis-Menten plots (V0 versus [S]) with nonlinear regression analysis using GraphPad software. kcat values were calculated under the assumption that each protease was 100% active.

For experiment [3], the target named is T3, DPP-8 (Homo sapiens, UniProt Q6V1X1).
T3 construct: 2-883 of DPP-8; FLAG (N); made in house; host or cells: 293 cells; template plasmid from Origene
T3 sequence (Q6V1X1 18-898 limits assumed): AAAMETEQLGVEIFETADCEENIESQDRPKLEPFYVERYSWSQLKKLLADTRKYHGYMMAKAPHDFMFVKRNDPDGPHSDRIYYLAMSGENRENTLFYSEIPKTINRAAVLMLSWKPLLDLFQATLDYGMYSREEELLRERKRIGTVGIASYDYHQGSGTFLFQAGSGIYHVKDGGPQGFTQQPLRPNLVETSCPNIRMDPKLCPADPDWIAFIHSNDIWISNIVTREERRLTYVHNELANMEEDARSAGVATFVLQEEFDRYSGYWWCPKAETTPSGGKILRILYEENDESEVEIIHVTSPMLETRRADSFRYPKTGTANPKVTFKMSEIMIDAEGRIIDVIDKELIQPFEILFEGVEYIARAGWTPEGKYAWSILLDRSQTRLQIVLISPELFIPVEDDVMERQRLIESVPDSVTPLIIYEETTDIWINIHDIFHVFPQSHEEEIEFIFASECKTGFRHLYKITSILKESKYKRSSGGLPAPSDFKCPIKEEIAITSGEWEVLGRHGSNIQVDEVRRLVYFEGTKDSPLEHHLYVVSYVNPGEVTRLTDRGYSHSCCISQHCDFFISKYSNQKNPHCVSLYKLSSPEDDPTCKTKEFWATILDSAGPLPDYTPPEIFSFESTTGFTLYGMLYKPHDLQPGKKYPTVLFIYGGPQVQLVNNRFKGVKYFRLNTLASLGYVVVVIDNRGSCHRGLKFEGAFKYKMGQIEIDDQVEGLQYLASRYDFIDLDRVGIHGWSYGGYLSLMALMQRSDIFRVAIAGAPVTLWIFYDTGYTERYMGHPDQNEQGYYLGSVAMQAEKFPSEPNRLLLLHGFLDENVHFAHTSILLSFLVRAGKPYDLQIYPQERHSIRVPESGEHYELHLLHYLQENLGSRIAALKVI
Kind of experiment: Relative cleavage of unblocked and N-blocked Gly-Pro-AFC by DPP-8. Conditions: protease DPP-8; unblocked vs N-blocked substrate. How it is done: as §1, §2

Experiment [4] deals with T4, DPP-9 (Homo sapiens, UniProt Q86TI2).
T4 construct: 2-864 of DPP-9; FLAG (N); made in house; host or cells: 293 cells; template plasmid from Origene
T4 sequence (Q86TI2 2-863 limits assumed): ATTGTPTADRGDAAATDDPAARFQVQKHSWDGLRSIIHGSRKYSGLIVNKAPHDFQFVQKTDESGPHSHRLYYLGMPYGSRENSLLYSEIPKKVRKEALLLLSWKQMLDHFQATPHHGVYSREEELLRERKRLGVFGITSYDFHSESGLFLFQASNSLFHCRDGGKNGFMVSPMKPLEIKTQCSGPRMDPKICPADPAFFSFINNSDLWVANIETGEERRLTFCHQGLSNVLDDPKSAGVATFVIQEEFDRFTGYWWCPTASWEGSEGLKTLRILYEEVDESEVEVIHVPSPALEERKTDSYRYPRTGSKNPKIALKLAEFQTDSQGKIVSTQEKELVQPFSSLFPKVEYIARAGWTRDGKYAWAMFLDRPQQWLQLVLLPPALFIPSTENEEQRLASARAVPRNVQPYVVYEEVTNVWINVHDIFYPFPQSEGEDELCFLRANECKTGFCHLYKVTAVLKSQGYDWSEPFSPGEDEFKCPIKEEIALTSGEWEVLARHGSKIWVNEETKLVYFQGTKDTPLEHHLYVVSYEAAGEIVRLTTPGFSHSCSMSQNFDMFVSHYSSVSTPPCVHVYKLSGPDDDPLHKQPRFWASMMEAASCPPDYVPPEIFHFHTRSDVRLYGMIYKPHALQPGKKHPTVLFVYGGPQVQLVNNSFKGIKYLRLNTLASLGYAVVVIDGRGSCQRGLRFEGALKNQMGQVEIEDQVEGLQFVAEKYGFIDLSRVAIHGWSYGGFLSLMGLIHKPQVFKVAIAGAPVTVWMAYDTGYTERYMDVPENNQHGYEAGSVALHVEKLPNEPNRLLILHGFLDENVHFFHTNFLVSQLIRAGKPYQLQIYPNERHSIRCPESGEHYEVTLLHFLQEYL
Kind of experiment: Relative cleavage of unblocked and N-blocked Gly-Pro-AFC by DPP-9. Conditions: protease DPP-9; unblocked vs N-blocked substrate. The method, then: as §1, §2

Experiment [5] concerns the target DPP-4 (Homo sapiens, UniProt P27487). The experiment in a line: Hydrolysis of C-terminal coumarin dipeptide substrates by DPP-4 (kinetic constants). Conditions: protease DPP-4; unblocked vs N-blocked substrate. Further details: DPP-4 (amino acids 39-766); FLAG (N); made in house; host or cells: 293 cells (secreted, purified from serum-free conditioned media). How it is done:
as §1
(§3) The cleavage (hydrolysis) rates of various C-terminal coumarin dipeptide substrates 7-16 by FAP and DPP-4 were measured (Tables 4 and 5). The amino-terminus of the substrates was unblocked and the amino acids were varied in Table 4. The amino-terminus of the substrates was blocked and the amino acids were varied in Table 5. To extend the results obtained with the dipeptide substrate library, kinetic parameters were determined for cleavage of the unblocked dipeptide substrates by FAP (Table 4). The catalytic efficiency (kcat/Km) for substrate cleavage was greatest with Ile-Pro-AFC, followed by Ala-Pro-, Gly-Pro- and Phe-Pro-AFC, consistent with the dipeptide substrate library results (FIG. 5). […] Kinetic constants for cleavage of Ala-Pro-AFC and Gly-Pro-AFC by DPP-4 were determined (Table 4). The catalytic efficiency for Ala-Pro-AFC hydrolysis was greater than that for Gly-Pro-AFC, and consistent with the dipeptide library.
as §2
(§4) When saturating amounts of substrate could not be achieved, catalytic efficiencies (kcat/Km) were determined under pseudo-first order conditions ([S]<<the estimated Km) and fit to the following equation: Ln[St/S0]=−kobst, where St is the concentration of substrate remaining at time t, S0 is the initial substrate concentration and kobs is the apparent first order substrate cleavage constant equal to (kcat/Km) times ET, the total enzyme concentration (Copeland, R. (2000) Enzymes, A Practical Introduction to Structure, Mechanism, and Data Analysis, 2nd Ed., John Wiley and Sons, Inc, New York). The linear relationship of Ln[St/S0] versus time allows calculation of kcat/Km by dividing the slope of the plot by ET.

The target in experiment [6] is T5, APH (Homo sapiens, UniProt P13798).
T5 construct: 2-732 of APH; FLAG (N); made in house; host or cells: 293 cells; template plasmid from Origene
T5 sequence (P13798 2-732): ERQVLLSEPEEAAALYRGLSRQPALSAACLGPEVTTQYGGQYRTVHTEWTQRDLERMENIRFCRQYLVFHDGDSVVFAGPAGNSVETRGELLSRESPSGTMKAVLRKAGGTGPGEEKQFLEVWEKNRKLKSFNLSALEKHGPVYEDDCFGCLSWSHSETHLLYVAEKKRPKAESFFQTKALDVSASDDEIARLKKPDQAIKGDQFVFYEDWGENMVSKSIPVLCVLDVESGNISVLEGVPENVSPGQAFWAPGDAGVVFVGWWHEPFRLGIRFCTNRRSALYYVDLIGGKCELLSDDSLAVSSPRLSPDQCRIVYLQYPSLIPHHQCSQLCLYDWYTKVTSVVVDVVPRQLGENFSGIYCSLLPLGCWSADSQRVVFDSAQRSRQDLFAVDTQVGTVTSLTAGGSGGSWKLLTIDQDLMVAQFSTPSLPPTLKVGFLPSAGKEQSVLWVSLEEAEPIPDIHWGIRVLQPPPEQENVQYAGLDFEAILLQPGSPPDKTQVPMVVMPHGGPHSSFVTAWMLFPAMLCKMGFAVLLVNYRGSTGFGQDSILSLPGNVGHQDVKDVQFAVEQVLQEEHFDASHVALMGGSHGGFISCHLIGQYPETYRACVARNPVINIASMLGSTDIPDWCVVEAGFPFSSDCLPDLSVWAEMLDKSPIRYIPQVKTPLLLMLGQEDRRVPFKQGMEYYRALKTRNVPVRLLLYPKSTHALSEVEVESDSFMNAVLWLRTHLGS
Kind of experiment: Relative cleavage of unblocked and N-blocked Gly-Pro-AFC by APH. Conditions: protease APH; unblocked vs N-blocked substrate. The method, then: as §1, §2

Experiment [7] concerns the target T6, FAP (Homo sapiens, UniProt Q12884).
T6 sequence (Q12884 38-760): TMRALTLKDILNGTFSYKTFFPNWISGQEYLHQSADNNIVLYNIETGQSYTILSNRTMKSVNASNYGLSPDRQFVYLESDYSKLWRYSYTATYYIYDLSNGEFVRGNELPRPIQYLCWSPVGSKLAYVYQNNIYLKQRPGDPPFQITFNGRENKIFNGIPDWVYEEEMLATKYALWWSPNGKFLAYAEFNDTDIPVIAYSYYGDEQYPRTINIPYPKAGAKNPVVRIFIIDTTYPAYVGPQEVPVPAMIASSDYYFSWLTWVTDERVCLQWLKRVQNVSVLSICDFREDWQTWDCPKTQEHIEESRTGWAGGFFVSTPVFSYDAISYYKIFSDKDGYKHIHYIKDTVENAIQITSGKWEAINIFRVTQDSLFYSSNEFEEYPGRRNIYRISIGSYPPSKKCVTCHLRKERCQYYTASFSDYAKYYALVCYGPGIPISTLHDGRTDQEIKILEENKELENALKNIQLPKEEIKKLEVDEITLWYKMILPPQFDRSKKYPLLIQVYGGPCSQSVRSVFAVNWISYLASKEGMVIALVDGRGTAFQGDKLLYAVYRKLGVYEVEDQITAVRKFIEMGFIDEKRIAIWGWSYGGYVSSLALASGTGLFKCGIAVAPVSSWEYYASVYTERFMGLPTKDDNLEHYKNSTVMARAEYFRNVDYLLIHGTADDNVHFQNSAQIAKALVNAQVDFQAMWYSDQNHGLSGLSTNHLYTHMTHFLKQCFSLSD
The experiment in a line: Hydrolysis of C-terminal coumarin dipeptide substrates by FAP (kinetic constants). Conditions: protease FAP; unblocked vs N-blocked substrate. Also noted: FAP (amino acids 38-760); FLAG (N); made in house; host or cells: 293 cells (secreted, purified from serum-free conditioned media). How it is done: as §1, §3, §2, §4

Sequence of DPP-4 (P27487 39-766): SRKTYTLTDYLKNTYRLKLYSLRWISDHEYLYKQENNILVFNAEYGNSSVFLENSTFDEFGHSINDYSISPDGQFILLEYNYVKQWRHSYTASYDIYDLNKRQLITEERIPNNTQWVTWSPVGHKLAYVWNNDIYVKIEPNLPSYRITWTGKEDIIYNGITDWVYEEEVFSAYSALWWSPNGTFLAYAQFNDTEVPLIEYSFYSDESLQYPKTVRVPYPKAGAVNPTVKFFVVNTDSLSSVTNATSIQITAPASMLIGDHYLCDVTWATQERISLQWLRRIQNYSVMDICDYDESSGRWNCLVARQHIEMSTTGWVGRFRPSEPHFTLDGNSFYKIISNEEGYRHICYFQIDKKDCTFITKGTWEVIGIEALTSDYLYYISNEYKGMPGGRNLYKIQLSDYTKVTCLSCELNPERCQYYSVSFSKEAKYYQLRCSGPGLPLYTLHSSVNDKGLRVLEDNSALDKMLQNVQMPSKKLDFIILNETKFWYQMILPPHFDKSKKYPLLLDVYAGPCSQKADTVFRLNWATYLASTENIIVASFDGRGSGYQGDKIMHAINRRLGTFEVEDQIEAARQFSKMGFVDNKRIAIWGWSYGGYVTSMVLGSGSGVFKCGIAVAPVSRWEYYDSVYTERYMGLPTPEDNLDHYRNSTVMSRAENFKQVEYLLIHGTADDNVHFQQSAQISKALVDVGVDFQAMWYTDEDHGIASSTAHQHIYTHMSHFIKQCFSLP

By Ki is commonly meant the dissociation constant of the complex between target and ligand, obtained from inhibition or displacement. Higher therefore signals lower affinity. For the compound `CC(C)C(=O)N(C)CC(=O)N1CCCC1B(O)O` (stereo not shown) [N-isobutyryl-sarcosyl-boroPro], in experiment [1], the Ki came to 0.063 µM.
With `NCC(=O)N1CCCC1C(=O)Nc1ccc2c(C(F)(F)F)c(CC(N)=O)c(=O)oc2c1` (stereo not drawn) [Gly-Pro-AFC 7, Gly-Pro-AFC], the “Relative Activity Gly-Pro-AFC 7/Ac-Gly-Pro-AFC 8” value in experiment [2] was 200; in experiment [3] it was 33; in experiment [4], 10,000; in experiment [5] it was 10,000; in experiment [6], “no cleavage”; in experiment [7], 1.0.
